In patent publication US20240148835A1, “TREATING DISORDERS ASSOCIATED WITH DYRK1A DYSFUNCTION” (UNIVERSITY OF FLORIDA RESEARCH FOUNDATION, INCORPORATED, priority 2021, published 2024):
“Also recorded” adds a separate entry of the source.

Legend:
[1] = test system: cHet primary cortical neurons; experiment: In vitro primary cortical neuron culture, Sholl analysis of Ctip2+ neurons; format: cell-based, mouse
Procedure: Lastly, to test whether (1-3)IGF-1 treatment rescues the decreased complexity of Dyrk1a cHet neurons, we cultured control and cHet primary cortical neurons. Neurons analyzed were restricted to Ctip2+ neurons, as we are focused on the impact of Dyrk1a mutations on the growth and connectivity of layer V pyramidal neurons.
In vitro primary neuronal culture: Brains from P0 mice were removed, and whole cortices were dissected. Individual cortices were placed into 1 mL chilled dissecting media (1× HBSS (14175-095), 30 mM glucose, 60 μM HEPES). After aspiration of the dissecting media, the tissue was enzymatically dissociated with papain (LS003126) that was previously diluted 1:80 in pre-warmed plating media [Neurobasal A (10888-022), 5% FBS (16000044), and 1% penicillin/streptomycin (p/s)/0.25% glutamine (10378-016)] and incubated at 37° C. for 15 min. The papain was removed, and the tissue was pipetted into a single-cell suspension in plating media. The suspensions were filtered using 40 μm nylon cell strainers (Fisher Scientific, #352340), and the filtered suspension was centrifuged at 280 RCF for 5 min. […] Samples of the suspensions were diluted 1:4 in trypan blue, and cells were counted with a manual hemocytometer for determination of sample concentration. […]
All coverslip images were taken at 40× magnification on an Olympus VS-120 epifluorescence microscope and analyzed with ImageJ (NIH). […]

Dyrk1a cHets = experiment: Chronic (1-3)IGF-1 treatment from P14: cortical and neuronal morphology; format: in vivo, mouse
Procedure: To test whether administration of the active peptide (1-3)IGF-1 restores cortical growth in cHets, we utilized the following paradigm: controls and cHets were treated daily with either (1-3)IGF-1 or vehicle beginning at P14. A behavioral battery began at P56 and daily injections continued until the mice were sacrificed for downstream analysis (FIG. 17A). […] As the impact of loss-of-function Dyrk1a mutations on spine density has not been investigated in vivo, we measured spine density on primary neurites of layer V pyramidal neurons in the mPFC. […] Together, these findings indicate that chronic (1-3)IGF-1 treatment beginning at P14 rescues microcephaly and neuronal undergrowth in Dyrk1a cHets.
(1-3)IGF-1 was acquired from VWR/Bachem (catalog #H-2468.1000) and dissolved in saline with 0.01% BSA fresh every day. Intraperitoneal injections of 10 mg kg′ (1-3)IGF-1 or vehicle were delivered daily at 8 a.m. starting on P14 and ending on P85. […] The S6K1 inhibitor PF-4708671 was acquired from Medkoo Biosciences (#406432) dissolved in 10% DMSO, 10% tween 80 and 80% water. (1-3)IGF-1 (10 mg kg′) and PF-4708671 (50 mg kg^−1) or vehicle were injected subcutaneously into pups from P0 to P7. Rapamycin was acquired from LC laboratories (R-5000) and dissolved in 4% ethanol, 5% tween-80, and 5% PEG400 in PBS. (1-3)IGF-1 (10 mg kg′) and Rapamycin (1 mg kg′) or vehicle were injected subcutaneously into pups from P0 to P7. SB216763 was acquired from TOCRIS (#1616) and dissolved in 5% DMSO and 0.9% saline in dH20. SB216763 (0.5 mg kg′) was injected subcutaneously into pups from P0 to P7.
Adult animals were perfused with 4% PFA and pups underwent rapid decapitation and dissection. After 18 hours post-fixation in 4% PFA, brains were incubated in a 20% sucrose/PBS solution at 4° C. for 2-3 days and embedded in Tissue-Tek OCT compound (Sakura). 40 μm sections were collected on Superfrost/Plus slides and stained. DAPI was used for nuclear labeling (Invitrogen, catalog #D3571). Slides were mounted with Vectashield HardSet and images were obtained with an Olympus VS120 microscope and processed using the VS-DESKTOP software (Olympus) or ImageJ (NIH). Ventricle size was analyzed by drawing an ROI around the entire ventricle in 2-3 plane-matched sections per animal.
Following rapid decapitation, brains were removed and processed using the FD Rapid Golgistain™ kit (FD Neurotechnologies, Columbia MD) following the manufacturer's instructions. A Leica vibrating microtome was used to cut 100 μm coronal sections in 6% sucrose in PBS. The sections were then mounted on gelatin-coated slides and stained using the FD Rapid Golgistain™ kit. Individual neurons were imaged using a Leica DM5500B 20× objective and reconstructed using Neuromantic software. After reconstruction, Sholl analysis was performed in ImageJ using the Simple Neurite Tracer. Primary neurites were selected for spine density analysis where the number of spines was counted and divided by the length of the neurite fragment. Soma size was measured using the ROI freehand tool on imageJ (NIH).

(1-3)IGF-1: a tripeptide cleaved from the N-terminus of IGF-1; acquired from VWR/Bachem, CAS No. 32302-76-4 (GPE; Insulin-like growth factor 1; UniProt P05019 49-51, looked up, fragment)
neuronal complexity (Sholl arborization) of cHet neurons ([1]; 100 ng/mL daily from DIV13 to DIV15, Ctip2+ neurons, DIV15): rescued; also recorded: rescues decreased arborization | neuronal complexity of control neurons ([1]; 100 ng/mL daily from DIV13 to DIV15, DIV15): did not affect control neurons | neuronal complexity of layer V pyramidal neurons in the mPFC (Sholl analysis) (Dyrk1a cHets; daily from P14, adult cHets): restored the neuronal complexity; also recorded: rescued | soma size of layer V pyramidal neurons (Dyrk1a cHets; daily from P14, adult cHets): restored the significantly smaller neuronal soma size; also recorded: rescued | ventricle area in cHets (Dyrk1a cHets; daily from P14, adult cHets): normalized; also recorded: rescued | spine density of layer V pyramidal neurons in the mPFC (Dyrk1a cHets; daily from P14, adult cHets, primary neurites): significantly increased; also recorded: partially restored | cortex mass (cortical growth) of cHets (Dyrk1a cHets; daily i.p. 10 mg kg from P14, adult cHets): rescued cortical growth in cHets; also recorded: restored | cortex mass (cortical growth) of controls (Dyrk1a cHets; daily i.p. 10 mg kg from P14, controls): no effect on controls
